Test results published in patent publication US5021421A, “2-(1-Piperazinyl)-4-phenylcycloalkanopyridine derivatives, processes for the production thereof, and pharmaceutical composition containing the same” (Dainippon Pharmaceutical Co., Ltd., priority 1989, dated 1991).
Where two headings read alike, the source gives them in different places.

Columns and labels:
[1] = system: exploratory activity; assay: Inhibitory effect on exploratory activity (Animex activity meter); assay type: in vivo, mice (Std-ddy strain); details: oral, 2 h after administration, 3 min counting; dose not given
Experimental: A group of 5 male mice (Std-ddy strain, 20-25 g) was used. Two hours after oral administration of the test compound, mice were placed individually in a test box (23×35×30 cm) on Animex activity meter (Farad Co.). Immediately thereafter, activity counting was started and lasted for three minutes. The mean counts of the compound-treated group were compared with those of the corresponding control (non-dosed) group, and the percent inhibition was calculated.

[2] = biological target: T1, serotonin (S2) receptor (Rattus norvegicus, UniProt P14842); assay: In vitro binding to serotonin (S2) receptor, [3H] ketanserin; parameters: species or system rats; details: [3H] ketanserin, rat brain crude synaptosome fraction
T1 construct: Crude synaptosome fractions were prepared from some brain regions in rats for receptor sources; from tissue
T1 sequence (P14842 whole entry): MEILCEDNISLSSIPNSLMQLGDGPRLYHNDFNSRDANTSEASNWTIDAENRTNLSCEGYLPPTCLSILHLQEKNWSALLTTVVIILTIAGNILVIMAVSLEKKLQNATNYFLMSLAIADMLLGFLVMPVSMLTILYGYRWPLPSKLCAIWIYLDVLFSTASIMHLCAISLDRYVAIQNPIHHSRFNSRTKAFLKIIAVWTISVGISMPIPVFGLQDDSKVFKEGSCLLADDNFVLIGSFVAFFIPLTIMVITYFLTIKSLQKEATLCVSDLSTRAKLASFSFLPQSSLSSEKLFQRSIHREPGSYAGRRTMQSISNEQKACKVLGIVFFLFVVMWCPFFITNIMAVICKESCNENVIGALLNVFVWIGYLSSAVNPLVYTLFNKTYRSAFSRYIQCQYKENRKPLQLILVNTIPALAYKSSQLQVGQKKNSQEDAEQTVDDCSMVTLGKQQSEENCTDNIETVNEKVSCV
Experimental: (§1) Dopamine (D2), serotonin (S1, S2) and adrenaline (α1) receptor binding assays were carried out according to the methods of I. Creese et al. [Eur. J. Pharmacol., 46, 377 (1977), S. J. Peroutka et al. [Mol. Pharmacol. 16, 687 (1979)], J. E. Leysen et al. [Mol. Pharmacol., 21, 301 (1982)] and D. C. U'Prichard et al. [Mol. Pharmacol., 13, 454 (1977)], respectively.
(§2) Crude synaptosome fractions were prepared from some brain regions in rats for receptor sources. Radioactive ligands used were [^3 H] spiperone (D2), [^3 H] serotonin (S1), [^3 H] ketanserin (S2) and [^3 H] WB-4101 (α1). The binding assay was performed by incubating aliquots of synaptosome fraction in buffer solution (final volume: 1 ml) containing a [^3 H] labelled ligand and a test compound. The assay was terminated by rapid filtration through Whatman GF/B glass fiber filters attached to a cell-harvester (Brandel) and radioactivity on the filters was counted in a Packard Triscarb scintillation counter. Specific binding was calculated as a difference between amounts of radioactivity in the presence and absence of an unlabelled ligand [spiperone (D2), serotonin (S1), methysergide (S2) and prazosin (α1)]. The IC50 value of the test compounds (concentration causing 50% inhibition of [^3 H] ligand specific binding) was determined by probit analysis.

[3] = system: apomorphine-induced vomiting; assay: Antagonistic effect on apomorphine-induced vomiting; assay type: in vivo, dogs (Beagle); details: Canis lupus familiaris, sc, read-out: Inhibitory ratio (apomorphine-induced vomiting)
Experimental: A group of 3-4 dogs (Beagle, 8-15 kg) was used for examining effects on the test compounds on apomorphine-induced vomiting, a known test for evaluating neuroleptic drugs.
Each dog was given a subcutaneous injection of apomorphine hydrochloride (0.3 mg/kg) two hours after the treatment of the test compounds. Then, the frequency of oral vomiting was counted for one hour. The mean counts of the compound-treated group were compared with those of the corresponding control (non-dosed) group, and the percent inhibition was calculated.

[4] = system: brain monoamine metabolites; assay: Increasing effect on concentration of brain monoamine metabolites; assay type: in vivo, mice (Std-ddy strain); details: Mus musculus, 2 h, non-dosed=100
Experimental: A group of 5 male mice (Std-ddy strain, 25-30 g) was used for examining effect of the test compounds on concentration of brain monoamine metabolites.
Mice were killed by decapitation 2 hours after treatment with the test compounds. Brains were quickly taken out, homogenized in 1N formic acid-acetone solution, and centrifuged in a refrigerated ultracentrifuge. The supernatant was evaporated by blowing with N2 gas. Then, the residue was again resolved in 0.01 N acetic acid, and served for determining concentration of dopamine metabolites, 3,4-dihydroxyphenylacetic acid (DOPAC) and homovanillic acid (HVA), a norepinephrine metabolite, 3-methyl-4-hydroxyphenylethylene glycol (MOPEG), and a serotonin metabolite, 5-hydroxyindole-3-acetic acid (5-HIAA) concentrations by HPLC with electrochemical detection. The effect of the test compounds on concentration of each monoamine metabolite is shown as % of control (level of non-dosed animals=100) in Table 4.

[5] = biological target: T2, dopamine (D2) receptor (Rattus norvegicus, UniProt P61169); assay: In vitro binding to dopamine (D2) receptor, [3H] spiperone; parameters: species or system rats
T2 construct: Crude synaptosome fractions were prepared from some brain regions in rats for receptor sources; from tissue
T2 sequence (P61169 whole entry): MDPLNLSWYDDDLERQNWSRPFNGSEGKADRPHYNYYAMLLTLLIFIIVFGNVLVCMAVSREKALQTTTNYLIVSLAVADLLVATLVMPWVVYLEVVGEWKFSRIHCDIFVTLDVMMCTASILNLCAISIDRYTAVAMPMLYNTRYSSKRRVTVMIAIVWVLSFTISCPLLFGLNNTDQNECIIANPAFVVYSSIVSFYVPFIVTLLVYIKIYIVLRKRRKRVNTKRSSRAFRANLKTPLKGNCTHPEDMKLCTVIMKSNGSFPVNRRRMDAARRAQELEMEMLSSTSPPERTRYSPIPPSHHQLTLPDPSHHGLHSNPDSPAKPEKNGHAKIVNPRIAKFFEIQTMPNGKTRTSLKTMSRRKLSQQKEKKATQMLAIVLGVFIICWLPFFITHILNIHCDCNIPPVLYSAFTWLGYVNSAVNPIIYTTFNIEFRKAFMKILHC
Experimental: as §1, §2

[6] = biological target: adrenaline (α1) receptor; assay: In vitro binding to adrenaline (α1) receptor, [3H] WB-4101; parameters: species or system rats; details: [3H] WB-4101, rat brain crude synaptosome fraction
Experimental: as §1, §2

[7] = biological target: serotonin (S1) receptor; assay: In vitro binding to serotonin (S1) receptor, [3H] serotonin; parameters: species or system rats; details: rat brain crude synaptosome fraction
Experimental: as §1, §2

[8] = system: scopolamine-induced deficit of spontaneous alternation; assay: Improving effect on scopolamine-induced deficit of spontaneous alternation behavior (T-maze); assay type: in vivo, mice (Std-ddY strain); details: scopolamine hydrobromide 1 mg/kg i.p.
Text: A group of 15-25 male mice (Std-ddY strain, 22-28 g) was used for evaluating effect of the test compounds on scopolamine-induced deficit of spontaneous alternation in a T-maze, which is a known animal model of memory impairment due to hypofunction of the cholinergic nervous system. The T-maze used consists of a stem and two arms which are 25 cm long, 5 cm wide and 10 cm high. The first 10 cm of the stem and last 10 cm of each arm are divided by sliding doors into start and goal boxes.
A test compound and scopolamine hydrobromide (1 mg/kg) were intraperitoneally administered to each mouse, and after 30 minutes a test of spontaneous alternation task in the T-maze was continuously repeated for 8 trials. Commonly, naive mice alternate each (right and left) goal box in turn, but scopolamine-treated animals tend to enter the same goal box repeatedly. The effect of the test compounds was expressed as % improvement (complete improvement to the alternation level of non-dosed mice=100%).

[9] = system: cycloheximide-induced amnesia of passive avoidance response; assay: Improving effect on cycloheximide-induced amnesia of passive avoidance response; assay type: in vivo, mice (Std-ddY strain); details: cycloheximide 60 mg/kg s.c., retention at 24 h
Text: Anti-amnesic effect of the test compounds was examined using mice given cycloheximide, which is a known amnesia-inducing agent.
A group of 15-20 male mice (Std-ddY strain, 27-33 g) was subjected to training and retention trials for a passive avoidance task in a step-down apparatus (30×30×50 cm) with a grid floor and a wooden platform (4×4×4 cm) in a center of the floor. In the training trial, each mouse was first placed on the platform. When the mouse stepped down on the grid floor, an electric shock (1 Hz, 0.5 sec, 60 VDC) was delivered to the feet for 15 seconds. Immediately after the training trial, cycloheximide (60 mg/kg, s.c.) and a test compound (i.p.) were administered. The retention trial was carried out 24 hours thereafter, the time from placing again each mouse placed on the platform until stepping down on the grid floor (step-down latency) was measured. The step-down latency in the retention trial was markedly shortened by treatment of cycloheximide (amnesia). The effect of test compounds was assessed by % improvement (complete improvement to the latency level of non-dosed animals=100%).

[10] = read-out: 5-HIAA concentration, % of control
[11] = read-out: DOPAC concentration, % of control
[12] = read-out: HVA concentration, % of control
[13] = read-out: MOPEG concentration, % of control
[14] = [3H] spiperone, rat brain crude synaptosome fraction, read-out: IC50 D2

| Structure (SMILES) | IC50 [2] [nM] | IC50 [5, 14] [nM] | IC50 [6] [nM] | response vs control in vivo at 10 mg/kg [4, 10] [%] | response vs control in vivo at 10 mg/kg [4, 11] [%] | response vs control in vivo at 10 mg/kg [4, 12] [%] | response vs control in vivo at 10 mg/kg [4, 13] [%] | IC50 [7] [nM] | Improvement (spontaneous alternation) ([8]; dose 10.0 mg/kg i.p.) [%] | Improvement (step-down latency) ([9]; dose 0.5 mg/kg i.p.) [%] | Improvement (step-down latency) ([9]; dose 2.0 mg/kg i.p.) [%] | other results |
| --- | --- | --- | --- | --- | --- | --- | --- | --- | --- | --- | --- | --- |
| CCN1CCN(c2cc(-c3ccc(F)cc3)c3c(n2)CCCCCC3)CC1 [Example 1b, 2-(4-ethyl-1-piperazinyl)-4-(4-fluorophenyl)-5,6,7,8,9,10-hexahydrocycloocta[b]pyridine] | 7 | 46 | 92 |  |  |  |  |  |  |  |  | Inhibitory ratio (exploratory activity) [1]: 83.7%; inhibition in vivo at 0.3 mg/kg ([3]; dose 0.3 mg/kg, apomorphine 0.3 mg/kg s.c. 2 h after compound): 88%; response vs control in vivo at 1 mg/kg [4, 10]: 102%; response vs control in vivo at 1 mg/kg [4, 11]: 235%; response vs control in vivo at 1 mg/kg [4, 12]: 212%; response vs control in vivo at 1 mg/kg [4, 13]: 118% |
| CCN1CCN(c2cc(-c3ccc(F)cc3)c3c(n2)CCCC3)CC1 [Example 15] | 19 | 58 | 35 | 108 | 277 | 235 | 118 | 1700 |  |  |  | inhibition in vivo at 3 mg/kg ([3]; dose 3.0 mg/kg, apomorphine 0.3 mg/kg s.c. 2 h after compound): 100% |
| CCN1CCN(c2cc(-c3ccccc3)c3c(n2)CCCCC3)CC1 [Example 23, 2-(4-Ethyl-1-piperazinyl)-4-phenyl-6,7,8,9-tetrahydro-5H-cyclohepta[b]pyridine] | 7.7 | 96 | 320 | 145 | 344 | 320 | 115 | 2900 |  |  |  |  |
| c1ccc(-c2cc(N3CCNCC3)nc3c2CCCC3)cc1 [Example 86, 2-(1-piperazinyl)-4-phenyl-5,6,7,8-tetrahydroquinoline] | 81 | 730 | 530 |  |  |  |  | 1400 | 47.6 |  |  |  |
| c1ccc(-c2cc(N3CCNCC3)nc3c2CCC3)cc1 [Example 87, 2-(1-Piperazinyl)-4-phenyl-6,7-dihydro-5H-1-pyrindine] | 28 | 270 | 94 | 136 | 180 | 194 | 117 | 820 |  | 48 | 77 | Improvement (spontaneous alternation) ([8]; dose 0.5 mg/kg i.p.): 48.0%; Improvement (spontaneous alternation) ([8]; dose 2.0 mg/kg i.p.): 60.0% |
| Fc1ccc(-c2cc(N3CCNCC3)nc3c2CCC3)cc1 [Example 88, 2-(1-Piperazinyl)-4-(4-fluorophenyl)-6,7-dihydro-5H-1-pyrindine] | 9.1 |  | 65 | 120 | 329 | 209 | 136 | 670 | 37.0 |  | 60 | inhibition in vivo at 3 mg/kg ([3]; 2 h): 94%; IC50 [5]: 70 nM |
| Fc1ccc(-c2cc(N3CCNCC3)nc3c2CCCC3)cc1 [Example 92, 2-(1-Piperazinyl)-4-(4-fluorophenyl)-5,6,7,8-tetrahydroquinoline] | 27 | 300 | 380 | 139 | 208 | 192 | 121 | 1900 |  |  | 44 | Improvement (step-down latency) ([9]; dose 10.0 mg/kg i.p.): 78% |
| c1ccc(-c2cc(N3CCNCC3)nc3c2CCCCC3)cc1 [Example 96] | 62 | 660 | 1100 | 127 | 201 | 194 | 115 | 4900 |  | 81 | 64 |  |
| Fc1ccc(-c2cc(N3CCNCC3)nc3c2CCCCC3)cc1 [Example 97, 2-(1-Piperazinyl)-4-(4-fluorophenyl)-6,7,8,9-tetrahydro-5H-cyclohepta[b]pyridine] | 5.1 | 260 | 890 | 128 | 232 | 176 | 125 | 4100 | 32.0 | 38 | 36 |  |
